Laboratory results from US7052676B2, “Methods for inhibition of HIV replication using a small molecule inhibitor” (priority 2000, dated 2006).
Entries after “also recorded” stand apart in the source; their conditions may differ. Where two headings read alike, the source gives them in different places.

How the values were obtained:
[1] = system: HIV-1BRU; experiment: HIV-1BRU replication in PHA-activated PBL / T lymphocytes, RT activity in supernatants; type: cell-based; conditions: for increase of HIV-1BRU replication in PBL by exogenous chemokine, mean over donors: IL-8: 5 donors, CD8-depleted PBL, GRO-α: n=7, p=0.027
Protocol: (§1) HIV-1 Infection of MDM and PBL: For each experiment, multiple wells of MDM or PBL were infected with equal RT counts of HIV-1 (30–300×10^6 CPM of RT used per 10^5 cells). This amount of CPM of RT activity per cell corresponds to a multiplicity of infection (MOI) of between 0.01 and 0.1 as determined by titration on HOS-CD4-CCR5 and CEM-SS cell lines and quantitation of proviral DNA in PBMC 24 h after infection. MDM were cultured for 3 d prior to infection, washed after an overnight incubation with the virus, and cultured in DME+10% FBS. PHA-activated PBL were washed and incubated in RPMI+10% FBS+IL-2 (40 U/ml) overnight. CD8+cells were depleted with magnetic Dynabeads® M-450 CD8 according to the manufacturer's instructions (Dynal, Lake Success, N.Y.). CD8-depleted PBL were then incubated with HIV-1 for 4 h, washed and incubated in media +IL-2. A portion of the media (25%) was removed from the MDM and PBL supernatants and replaced twice weekly.

[2] = system: MDM; experiment: MTT assay of cellular viability, proliferation and activation in infected MDM; type: cell-based, human
Protocol: FIG. 3. […] MDM were treated as in FIGS. 1 and 2, and RT activity was measured every three to four days. MDM were also analyzed on day 13 by MTT assay (a measure of cellular viability, proliferation, and activation). Viability and activation was changed by less than 20% at all of the doses evaluated. For each treatment, viral replication was normalized against viability (RT activity/MTT assay) and then expressed relative to the control (no treatment). Data shown are the mean of three experiments;
In a preferred embodiment, the inhibitor is SB225002, a small molecular weight inhibitor that is an antagonist of IL-8 binding to CXCR2. In an alternate preferred embodiment, the inhibitor is antileukinate, a synthetic peptide inhibitor that interferes with both IL-8 and GRO-α binding to receptors. […] Infection of PBL with HIV-1BRU was inhibited by both the small molecule inhibitor, SB225002 (FIG. 29A), and the peptide, antileukinate (FIG. 29B). […] Cellular viability, proliferation, and activation were also analyzed in the infected cells by performing an MTT assay. […] Similarly, doses of antileukinate up to 10^−4 M in PBL and 10^−6 M in MDM reduced cellular viability by not more than 20%, and doses as low as 10^−8 M were effective at inhibiting HIV-1 replication. […]

[3] = system: PBL; type: cell-based, human
Excerpt: In a preferred embodiment, the inhibitor is SB225002, a small molecular weight inhibitor that is an antagonist of IL-8 binding to CXCR2. In an alternate preferred embodiment, the inhibitor is antileukinate, a synthetic peptide inhibitor that interferes with both IL-8 and GRO-α binding to receptors. […] Infection of PBL with HIV-1BRU was inhibited by both the small molecule inhibitor, SB225002 (FIG. 29A), and the peptide, antileukinate (FIG. 29B). […] Cellular viability, proliferation, and activation were also analyzed in the infected cells by performing an MTT assay. […] Similarly, doses of antileukinate up to 10^−4 M in PBL and 10^−6 M in MDM reduced cellular viability by not more than 20%, and doses as low as 10^−8 M were effective at inhibiting HIV-1 replication. […] The mean decreases in HIV-1BaL replication in MDM were 4.0±1.3 for 1000 nM SB225002 (p=0.019) and 2.6±0.6 for 10^−6 M antileukinate (p=0.002) relative to controls.

[4] = system: HIV-1BaL; experiment: HIV-1BaL replication in monocyte-derived macrophages (MDM), RT activity in supernatants; type: cell-based; conditions: for increase of HIV-1BaL replication in MDM by exogenous chemokine, mean over donors: IL-8: 17 donors, GRO-α: 5 donors
Protocol: as §1

[5] = system: GRO-α production by MDM; type: cell-based, human
[6] = system: HIV-1BRU; experiment: HIV-1BRU (X4) infection of MDM, RT activity; type: cell-based; conditions: MDM from multiple donors
Protocol: as §1

[7] = system: HIV-1BaL; experiment: HIV-1BaL replication in activated (CD8-depleted) PBL, RT activity; type: cell-based; conditions: IL-8: 11 donors; GRO-α: n=6
Protocol: as §1

[8] = system: HIV-1; conditions: R5 and X4 isolates of HIV-1 and HIV-2
Protocol: Reverse Transcriptase (RT) Assay: HIV replication was determined by quantification of the RT activity present in the supernatants using a poly(A)-oligo(dT) template primer as previously described. […] RT activity was assayed using ^32P-labeled deoxythymidine triphosphate incorporated in DNA bound to DE81 paper (Whatman) and quantified using either the Series 400 PhosphorImager and ImageQuant® software (Molecular Dynamics, Sunnyvale, Calif.) or a Betascope radioisotope imaging system. RT activity is reported as phosphoimager counts except when labeled “counts” to signify beta counts.

[9] = system: CD14+ monocytes; experiment: Intracellular IL-8 staining of PBMC (flow cytometry); type: cell-based, human; conditions: staining after 6 hours; control monocytes 10%
Protocol: Intracellular Cytokine Staining: PBMC were collected as described above and cultured in RPMI+10% FBS. The next day, PBMC were treated for 6 h with monensin (GolgiStop™, PharMingen) and incubated with virus or TNF-α. PBMC were then collected and stained for the presence of intracellular IL-8 and various cell surface markers according to the manufacturer's instructions (PharMingen). Adherent cells were collected by incubation in PBS+10 mM EDTA for 30 min at 4° C. PBMC (both adherent and non-adherent cells) were incubated in staining buffer (DPBS+1% FBS+0.09% sodium azide) with mouse IgG for 20 min at 4° C. to block non-specific binding of IgG to target cells. PBMC were then washed with staining buffer and stained for cell surface antigens for 30 min at 4° C. using R-phycoerythrin (PE)-conjugated mouse anti-human CD4 (PE-CD4) or CD14 (PE-CD14) monoclonal antibodies or PE-mouse IgG1, κ isotype control immunoglobulin (PharMingen). After two washes with staining buffer, PBMC were fixed and permeabilized with Cytofix/Cytoperm (PharMingen). PBMC were washed twice in Perm/Wash solution and then stained with either fluorescein isothiocyanate (FITC)-conjugated mouse anti-human IL-8 monoclonal antibody or FITC-mouse IgG2a, κ immunoglobulin isotype standard (PharMingen). Analysis of cell staining was performed using an EPICS Elite cell sorter (Beckman-Coulter, Fullerton, Calif.). […]

[10] = system: IL-8 promoter; experiment: IL-8 promoter CAT reporter in transfected U937 cells; type: cell-based, human; conditions: Tat co-transfection alone, or TNF-α 1 ng/ml alone
Protocol: Transfection of the U937 Promonocyte Cell Line: U937 cells were transfected by the DEAE-dextran method with 1 μg of HIV-1 Tat (pCG-Tat1) or control vector (pCG) and 10 μg of a plasmid containing the chloramphenicol acetyl transferase (CAT) reporter gene downstream of either sequence which lacks eukaryotic promoter and enhancer sequences (pCAT-Basic, Promega, Madison, Wis.), nucleotides −254 to +19 of the IL-8 promoter (pCAT-IL-8), or the HIV-1-LTR. The cells were either left untreated or treated with TNF-α (1 ng/ml) at 24 hours after transfection and harvested 48 hours after transfection. CAT activity was quantified and normalized for the amount of protein. Values near 6000 represent complete acetylation of chloramphenicol (100%).

[11] = system: monocytes; experiment: Intracellular GRO staining of PBMC (flow cytometry); type: cell-based, human; conditions: staining after 6 hours
Protocol: Intracellular cytokine staining: PBMC were collected as described above and cultured in RPMI+10% FBS. The next day, PBMC were treated for 6 h with monensin (GolgiStop™, PharMingen) and incubated with virus, viral proteins, or TNF-α as indicated in the figure legend. PBMC were then collected and stained for the presence of intracellular GRO according to the manufacturer's instructions (PharMingen). Adherent cells were collected by incubation in PBS+10 mM EDTA for 30 min at 4° C. PBMC (both adherent and non-adherent cells) were then incubated in staining buffer (DPBS+1% FBS+0.09% sodium azide) with mouse IgG for 20 min at 4° C. to block non-specific binding of IgG to target cells. After two washes with staining buffer, PBMC were fixed and permeabilized with Cytofix/Cytoperm (PharMingen). PBMC were washed twice in Perm/Wash solution and then stained with either R-phycoerythrin (PE)-conjugated mouse anti-human GRO monoclonal antibody (GRO-PE) or PE-mouse IgG1, κ isotype control immunoglobulin (PharMingen). Analysis of cell staining was performed using an EPICS Elite cell sorter (Beckman-Coulter, Fullerton, Calif.). The monocyte and lymphocyte subpopulations were gated according to the pattern of forward scatter and side scatter.

[12] = system: IL-8 production by MDM; experiment: IL-8 production by MDM (ELISA of supernatants); conditions: added prior to exposure to HIV-1

## O=C(Nc1ccc([N+](=O)[O-])cc1O)Nc1ccccc1Br [SB225002, N-(2-hydroxy-4-nitrophenyl)-N′-(2-bromophenyl)urea, reference compound]
[1]; treated every three days from one day before infection, RT activity days 3, 6, 9
  HIV-1BRU infection/replication in PBL, effect of inhibitor: decreases HIV-1 replication; also recorded: inhibited
[2]
  cellular viability (MTT), effect of the doses used: did not negatively affect cellular viability
[3]
  cellular viability (MTT), effect of the doses used: did not negatively affect cellular viability
[4]; 1000 nM, p=0.019
  mean decrease in HIV-1BaL replication in MDM relative to controls: 4.0±1.3
[4]; RT activity normalized against MTT, relative to no treatment, mean of three experiments
  HIV replication in MDM, effect of inhibitor: significantly decrease HIV replication

## O=c1c(-c2ccc(O)cc2)coc2cc(O)cc(O)c12 [genistein]
[5]
  HIV-1BRU-induced GRO-α production by MDM, sensitivity to inhibitor: sensitive

## CO[C@H]1[C@@H](OC)C[C@H](C)[C@@H](OC)C2=CC(=O)C=C(NC(=O)/C(C)=C/C=C\[C@H](OC)[C@@H](OC(N)=O)/C(C)=C/[C@@H]1C)C2=O [herbimycin A]
[5]
  HIV-1BRU-induced GRO-α production by MDM, sensitivity to inhibitor: sensitive

## GRO-α: recombinant C-X-C chemokine growth-regulated oncogene-alpha, ligand of CXCR2
[1]
  increase of HIV-1BRU replication in PBL by exogenous chemokine, mean over donors: 2.4 fold
[6]
  susceptibility of MDM to productive infection with X4 HIV (HIV-1BRU) with exogenous chemokine: does not confer susceptibility to productive infection with X4 HIV on MDM
[4]
  HIV-1BaL replication in MDM, effect of exogenous chemokine: augmented
  increase of HIV-1BaL replication in MDM by exogenous chemokine, mean over donors: 14 fold
[7]
  increase of HIV-1BaL replication in PBL by exogenous chemokine, mean over donors: 5 fold
[8]
  replication of other isolates tested, effect of exogenous chemokine: stimulated the replication of all isolates tested

## IL-8: recombinant human IL-8, C-X-C chemokine
[1]
  increase of HIV-1BRU replication in PBL by exogenous chemokine, mean over donors: 1.7 fold
[1]; PHA-activated, CD8-depleted PBL (FIG. 8C)
  doses that stimulated viral replication: exceeding 5 ng/ml
[6]
  susceptibility of MDM to productive infection with X4 HIV (HIV-1BRU) with exogenous chemokine: does not confer susceptibility to productive infection with X4 HIV on MDM
[4]
  HIV-1BaL replication in MDM, effect of exogenous chemokine: augmented
  increase of HIV-1BaL replication in MDM by exogenous chemokine, mean over donors: 6.2 fold
[7]
  increase of HIV-1BaL replication in PBL by exogenous chemokine, mean over donors: 4.8 fold
[8]
  replication of other isolates tested, effect of exogenous chemokine: stimulated the replication of all other isolates tested

## IP-10: CXCR3 ligand, C-X-C chemokine
[1]
  HIV-1BRU replication in peripheral blood lymphocytes, effect of exogenous chemokine: stimulation
[4]
  HIV-1BaL replication in MDM, effect of exogenous chemokine: stimulation

## SDF-1α
[5]
  GRO-α production by MDM, effect of treatment with the agent alone: not produced

## TNF-α
[9]
  CD14+ monocytes in which IL-8 was present: > 90%
[10]
  IL-8 promoter activity, effect of single stimulus: activated
[11]
  monocytes in which GRO was present: large percentage of monocytes

## polymixin B
[5]; supernatants 20 hours after exposure to virus
  HIV-1BRU-induced GRO-α production by MDM, sensitivity to inhibitor: did not prevent the HIV-1BRU-induced increases in GRO-α
[12]
  HIV-induced IL-8 production by MDM, effect of antibody or agent: did not prevent the HIV-induced increase in IL-8 production

B1: RANTES: C-C chemokine which binds to CCR5 and CCR1 (protein, UniProt P13501 24-91, looked up)
C-C motif chemokine 5: SPYSSDTTPCCFAYIARPLPRAHIKEYFYTSGKCSNPAVVFVTRKNRQVCANPEKKWVREYINSLEMS
[5]
  GRO-α production by MDM, effect of treatment with the agent alone: nor RANTES, which binds to CCR5 and CCR1, was able to stimulate GRO-α production

B2: MIG: CXCR3 ligand, C-X-C chemokine (protein, UniProt Q07325 23-125, looked up)
C-X-C motif chemokine 9: TPVVRKGRCSCISTNQGTIHLQSLKDLKQFAPSPSCEKIEIIATLKNGVQTCLNPDSADVKELIKKWEKQVSQKKKQKNGKKHQKKKVLKVRKSQRSRQKKTT
[1]
  HIV-1BRU replication in peripheral blood lymphocytes, effect of exogenous chemokine: stimulation

B3: I-TAC: CXCR3 ligand, C-X-C chemokine (protein, UniProt O14625 22-94, looked up)
C-X-C motif chemokine 11: FPMFKRGRCLCIGPGVKAVKVADIEKASIMYPSNNCDKIEVIITLKENKGQRCLNPKSKQARLIIKKVERKNF
[1]
  HIV-1BRU replication in peripheral blood lymphocytes, effect of exogenous chemokine: stimulation
